Results on 18 compounds are retold here after patent US12595230B2, “Substituted 6,7-dihydro-5H-benzo[7]annulene compounds and their derivatives, processes for their preparation and therapeutic uses thereof” (Sanofi, priority 2020, dated 2026).

The experiment addresses T1, ERα (Homo sapiens, UniProt P03372).
T1 construct: host or cells: MCF7
T1 sequence (P03372 1-595): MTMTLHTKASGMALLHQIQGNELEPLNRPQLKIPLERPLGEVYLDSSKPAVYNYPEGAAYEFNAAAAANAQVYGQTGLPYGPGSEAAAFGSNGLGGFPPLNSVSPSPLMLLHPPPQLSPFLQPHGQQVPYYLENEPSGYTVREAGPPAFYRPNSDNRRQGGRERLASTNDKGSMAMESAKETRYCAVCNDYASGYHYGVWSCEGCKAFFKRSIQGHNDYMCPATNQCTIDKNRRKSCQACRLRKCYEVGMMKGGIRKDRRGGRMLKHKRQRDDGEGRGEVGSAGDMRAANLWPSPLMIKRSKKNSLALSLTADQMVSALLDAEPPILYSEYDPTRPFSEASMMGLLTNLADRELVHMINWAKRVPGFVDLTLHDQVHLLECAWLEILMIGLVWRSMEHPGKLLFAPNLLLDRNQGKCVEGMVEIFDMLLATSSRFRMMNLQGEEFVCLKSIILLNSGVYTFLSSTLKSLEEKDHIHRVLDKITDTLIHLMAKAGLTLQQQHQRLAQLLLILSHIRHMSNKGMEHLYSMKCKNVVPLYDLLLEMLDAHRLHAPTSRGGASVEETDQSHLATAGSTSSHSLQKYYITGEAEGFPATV
Put plainly: Estrogen receptor degradation activity: breast cancer cell ERα in cell western assay (MCF7 cells). In kind it is cell-based. Particulars: for % Degradation At 0.3 μM: 4 hours, relative to fulvestrant 0.1 μM positive control; for DC50 / IC50: 4 hours post compound addition, concentration which degrades 50% of the estrogen receptor; for DC50: read-out: Degradation IC50. As to the method:
Test: Estrogen Receptor Degradation Activity Said test involves measuring the in vitro degradation activity of the compounds of the Table 1a. The measurements of the degradation activities were made using a breast cancer cell ERα in cell western assay as described hereunder. MCF7 cells (ATCC) were seeded in 384 wells microplate (collagen coated) at a concentration of 10000 cells/30 μL per well in red phenol free MEM alpha medium (invitrogen) containing 5% charcoal dextran striped FBS. The following day, 9 points serial 1:5 dilution of each compound was added to the cells in 2.5p L at final concentrations ranging from 0.3-0.0000018 μM (in table 2), or 0.1 μM for fulvestrant (using as positive control). At 4 hours post compound addition the cells were fixed by adding 25 μL of formalin (final concentration 5% formalin containing 0.1% triton) for 10 minutes at room temperature and then washed twice with PBS. Then, 50 μL of LI-COR blocking buffer containing 0.1% Triton was added to plate for 30 minutes at room temperature. LI-COR blocking buffer was removed and cells were incubated overnight at cold room with 50 μL anti-ER rabbit monoclonal antibody (Thermo scientific MA1-39540) diluted at 1:1000 in LI-COR blocking buffer containing 0.1% tween-20. Wells which were treated with blocking buffer but no antibody were used as background control. Wells were washed twice with PBS (0.1% tween-20) and incubated at 37° C. for 60 minutes in LI-COR (0.1% tween-20) containing goat anti-rabbit antibody Alexa 488 (1:1000) and Syto-64 a DNA dye (2 μM final concentration). Cells were then washed 3 times in PBS and scanned in ACUMEN explorer (TTP-Labtech). Integrated intensities in the green fluorescence and red fluorescence were measured to determine the levels of ERα and DNA respectively. The degradation activity with respect to estrogen receptors in this test is given by the concentration which degrades 50% of the estrogen receptor (or IC50) in nM. […] DMSO−fulvestrant)).

For the compound `O=C([O-])c1ccc2c(c1)CCCC(C1=C[C@@H]3CCC[C@@H]3C1)=C2c1ccc(CC2CN(CCCF)C2)cc1.[Na+]` (relative stereo) [Example 299, sodium 9-(4-((1-(3-fluoropropyl)azetidin-3-yl)methyl)phenyl)-8-(cis-1,3a,4,5,6,6a-hexahydropentalen-2-yl)-6,7-dihydro-5H-benzo[7]annulene-3-carboxylate], the “% Degradation At 0.3 μM” value turned out to be 90% and the DC50 was found to be 700 pM.
On to `COc1c(C(=O)O)ccc2c1CCCC(c1ccc(F)cc1C)=C2c1ccc(CC2CN(CCCF)C2)cc1` [Example 269, 8-(4-fluoro-2-methylphenyl)-9-(4-((1-(3-fluoropropyl)azetidin-3-yl)methyl)phenyl)-4-methoxy-6,7-dihydro-5H-benzo[7]annulene-3-carboxylic acid], for which the “% Degradation At 0.3 μM” value worked out at 100% and the DC50 was 180000 pM.
`Cl.O=C(O)c1ccc2c(c1)CCCC(C1CCC(F)(F)CC1)=C2c1ccc(CC2CN(CCCF)C2)cc1` [Example 4, 8-(4,4-Difluorocyclohexyl)-9-(4-((1-(3-fluoropropyl)azetidin-3-yl)methyl)phenyl)-6,7-dihydro-5H-benzo[7]Annulene-3-carboxylic Acid Hydrochloride]: the “% Degradation At 0.3 μM” value is reported as 85% and the DC50 was found to be 900 pM.
For the compound `CC(C)C1CCc2cc(C(=O)O)ccc2C(c2ccc(CC3CN(CCCF)C3)cc2)=C1c1ccc(Cl)cc1Cl` (single isomer, unassigned) [Example 321, 8-(2,4-dichlorophenyl)-9-(4-((1-(3-fluoropropyl)azetidin-3-yl)methyl)phenyl)-7-isopropyl-6,7-dihydro-5H-benzo[7]annulene-3-carboxylic acid], the “% Degradation At 0.3 μM” value was found to be 88% and the DC50 stood at 500 pM.
`CC(O)(c1ccc(C2=C(c3ccc(Cl)cc3Cl)CCCc3cc(C(=O)O)ccc32)cc1)C1CN(CCCF)C1.Cl` (single isomer, unassigned; isomer 1) [Example 235, 8-(2,4-dichlorophenyl)-9-(4-(1-(1-(3-fluoropropyl)azetidin-3-yl)-1-hydroxyethyl)phenyl)-6,7-dihydro-5H-benzo[7]annulene-3-carboxylic acid, Hydrochloride Isomer 1]: the “% Degradation At 0.3 μM” value is given as 62% and the DC50 was determined as 4500 pM.
For the compound `O=C(O)c1ccc2c(c1)CCC(C1CC1)C(c1ccc(Cl)cc1)=C2c1ccc(CC2CN(CCCF)C2)cc1` (racemic) [Example 324, 8-(4-chlorophenyl)-7-cyclopropyl-9-(4-((1-(3-fluoropropyl)azetidin-3-yl)methyl)phenyl)-6,7-dihydro-5H-benzo[7]annulene-3-carboxylic acid], the “% Degradation At 0.3 μM” value was 86% and the DC50 came out at 800 pM.
For `O=C(O)c1ccc2c(c1)CCCC(CC1CCC1)=C2c1ccc(CC2CN(CCCF)C2)cc1` [Example 294, 8-(cyclobutylmethyl)-9-(4-((1-(3-fluoropropyl)azetidin-3-yl)methyl)phenyl)-6,7-dihydro-5H-benzo[7]annulene-3-carboxylic acid], the “% Degradation At 0.3 μM” value turned out to be 92% and the IC50 (as a rule, the concentration that inhibits the measured activity by half) amounted to 200 pM.
On to `CC(C)CC1=C(c2ccc(CC3CN(CCCF)C3)cc2)c2ccc(C(=O)O)cc2CCC1` [Example 37, 9-(4-((1-(3-fluoropropyl)azetidin-3-yl)methyl)phenyl)-8-isobutyl-6,7-dihydro-5H-benzo[7]annulene-3-carboxylic acid], for which the “% Degradation At 0.3 μM” value stood at 87% and the DC50 is 400 pM.
For the compound `Cl.O=C(O)c1ccc2c(c1)CCCC(c1cccc3c1CCC3(F)F)=C2c1ccc(CC2CN(CCCF)C2)cc1` [Example 54, 8-(1,1-difluoro-2,3-dihydro-1H-inden-4-yl)-9-(4-((1-(3-fluoropropyl)azetidin-3-yl)methyl)phenyl)-6,7-dihydro-5H-benzo[7]annulene-3-carboxylic acid hydrochloride], the “% Degradation At 0.3 μM” value worked out at 94% and the DC50 turned out to be 600 pM.
Consider `O=C(O)c1ccc2c(c1)CCCC(c1cccc(F)c1C(F)(F)F)=C2c1ccc(CC2CN(CCCF)C2)cc1` [Example 232, 8-(3-fluoro-2-(trifluoromethyl)phenyl)-9-(4-((1-(3-fluoropropyl)azetidin-3-yl)methyl)phenyl)-6,7-dihydro-5H-benzo[7]annulene-3-carboxylic acid], for which the “% Degradation At 0.3 μM” value was determined as 88% and the IC50 came out at 100 pM.
Turning to `O=C(O)c1ccc2c(c1)CCCC([C@@H]1C[C@H]1C1CCC(F)(F)CC1)=C2c1ccc(CC2CN(CCCF)C2)cc1` [Example 331, 8-((1R,2S)-2-(4,4-difluorocyclohexyl)cyclopropyl)-9-(4-((1-(3-fluoropropyl)azetidin-3-yl)methyl)phenyl)-6,7-dihydro-5H-benzo[7]annulene-3-carboxylic acid], the “% Degradation At 0.3 μM” value is given as 77% and the DC50 is 10700 pM.
Turning to `O=C(O)c1ccc2c(c1)CCCC(c1ncc(Cl)cc1C(F)(F)F)=C2c1ccc(CC2CN(CCCF)C2)cc1` [Example 218, 8-(5-chloro-3-(trifluoromethyl)pyridin-2-yl)-9-(4-((1-(3-fluoropropyl)azetidin-3-yl)methyl)phenyl)-6,7-dihydro-5H-benzo[7]annulene-3-carboxylic acid], the “% Degradation At 0.3 μM” value amounted to 92% and the DC50 worked out at 500 pM.
As to `CC(C)C1CCc2cc(C(=O)O)ccc2C(c2ccc(CC3CN(CCCF)C3)cc2)=C1c1ccc(Cl)cc1` (racemic) [Example 317, 8-(4-chlorophenyl)-9-(4-((1-(3-fluoropropyl)azetidin-3-yl)methyl)phenyl)-7-isopropyl-6,7-dihydro-5H-benzo[7]annulene-3-carboxylic acid], the “% Degradation At 0.3 μM” value worked out at 87% and the DC50 turned out to be 1600 pM.
For the compound `Cc1cc(Cl)ccc1C1=C(c2ccc(CC3CN(CCC(F)F)C3)cc2)c2ccc(C(=O)O)cc2CCC1` [Example 282, 8-(4-chloro-2-methylphenyl)-9-(4-((1-(3,3-difluoropropyl)azetidin-3-yl)methyl)phenyl)-6,7-dihydro-5H-benzo[7]annulene-3-carboxylic acid], the “% Degradation At 0.3 μM” value stood at 86% and the DC50 is 400 pM.
`Cl.[2H]C([2H])(CCF)N1CC(Cc2ccc(C3=C(c4ccc(Cl)cc4Cl)CCCc4cc(C(=O)O)ccc43)cc2)C1` [Example 208, 8-(2,4-dichlorophenyl)-9-(4-((1-(3-fluoropropyl-1,1-d2)azetidin-3-yl)methyl)phenyl)-6,7-dihydro-5H-benzo[7]annulene-3-carboxylic acid hydrochloride]: the “% Degradation At 0.3 μM” value amounted to 95% and the DC50 was found to be 200 pM.
For `COc1ccc(C2=C(c3ccc(CC4CN(CCCF)C4)cc3)c3ccc(C(=O)O)cc3CCC2)c(Cl)c1` [Example 24, 8-(2-chloro-4-methoxyphenyl)-9-(4-((1-(3-fluoropropyl)azetidin-3-yl)methyl)phenyl)-6,7-dihydro-5H-benzo[7]annulene-3-carboxylic acid], the “% Degradation At 0.3 μM” value was found to be 92% and the DC50 was found to be 400 pM.
As to `COc1c(Cl)cccc1C1=C(c2ccc(CC3CN(CCCF)C3)cc2)c2ccc(C(=O)O)cc2CCC1` [Example 334, 8-(3-chloro-2-methoxyphenyl)-9-(4-((1-(3-fluoropropyl)azetidin-3-yl)methyl)phenyl)-6,7-dihydro-5H-benzo[7]annulene-3-carboxylic acid], the “% Degradation At 0.3 μM” value was determined as 91% and the DC50 was 400 pM.
Take `O=C([O-])c1ccc2c(c1)OCCC(c1ccc(F)cc1Cl)=C2c1ccc(CC2CN(CCCF)C2)cc1.[Na+]` [Example 264, sodium 4-(2-chloro-4-fluorophenyl)-5-(4-((1-(3-fluoropropyl)azetidin-3-yl)methyl)phenyl)-2,3-dihydrobenzo[b]oxepine-8-carboxylate]: the “% Degradation At 0.3 μM” value is recorded as 95% and the DC50 amounted to 1100 pM.
